Experimental findings from patent US9877918B2, “Long-lasting controlled-release liposome composition and method for producing same” (TERUMO KABUSHIKI KAISHA, priority 2011, dated 2018) are described below.

Counter-ions that a name gives are not always drawn.

A short description of the data set: Bupivacaine hydrochloride retention in the administration site after subcutaneous administration. Format: in vivo. To be noted: rat, SC 3.5 mg/kg, four hours after the administration. On the procedure: (6) Concentration of Bupivacaine Hydrochloride in Tissue (mg/mL): Sampled tissue was treated, and, for a supernatant obtained finally by centrifugation, absorbance at 210 nm was determined by high performance liquid chromatography using a UV-visible absorptiometer, to thereby measure the concentration of bupivacaine hydrochloride in the tissue.
The bupivacaine hydrochloride liposome preparation prepared in Preparation Example 16 and bupivacaine hydrochloride used alone were subjected to a pharmacokinetic test. The liposome preparation and bupivacaine hydrochloride used alone were administered subcutaneously into a back part of a rat in respective doses as set forth in Table 11 while the doses are set as the amount of bupivacaine hydrochloride. After the lapse of 1, 24, 72, 120, and 168 hours from the administration of the bupivacaine hydrochloride liposome composition, and after the lapse of 0.5, 4, and 24 hours from the administration of bupivacaine hydrochloride used alone, a subcutaneous tissue of the back part in the administration site was sampled and subjected to a homogenizing treatment. […]

As for `CCCCN1CCCCC1C(=O)Nc1c(C)cccc1C` (stereo not shown) [bupivacaine hydrochloride used alone, Bupivacaine Hydrochloride], the “retention rate in the administration site” value is “below 1%”.
